In this experiment the test system is beta-TC6 cells. In words: Insulin HTRF assay, relative activity Ar normalized to sunitinib. The format is cell-based. The conditions noted are these: Mus musculus, normalized to positive control sunitinib (5 µM = 100%), Table 10. In outline: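 Relative activity Ar was scaled between 0% and 100% controls, with sunitinib at 5 µM f.c. as reference. Insulin released by beta-TC6 cells was quantified by sandwich HTRF (Eu-cryptate/XL665 antibodies, 120 min RT). Cells had been seeded 24 or 48 h, then treated 2–4 h at 37°C in induction buffer, 0.5% DMSO.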
A general note: Time-resolved FRET reads energy transfer from a long-lived donor to a nearby acceptor.
With `Cn1cc(-c2cn3c(-c4ccc(O)cc4)cnc3cn2)cn1` [compound 327, 4-[6-(1-methylpyrazol-4-yl)imidazo[1,2-a]pyrazin-3-yl]phenol], the Emax – broadly, the size of the effect at its maximum, as opposed to the concentration needed – was 20 to 50%.

As to `CN1CCN(C(=O)c2ccc(-c3cnc4cnc(/C=C/c5ccccc5)cn34)cc2)CC1` [compound 402, (4-methylpiperazin-1-yl)-[4-[6-[(E)-styryl]imidazo[1,2-a]pyrazin-3-yl]phenyl]methanone], the Emax was 10 to 20%.

In turn, `N#Cc1ccc(-c2ccc3nnc(-c4cccc(O)c4)n3c2)cc1` [compound 206, 4-[3-(3-hydroxyphenyl)-[1,2,4]triazolo[4,3-a]pyridin-6-yl]benzonitrile] gave a maximum response (Emax) of 50 to 100%.

`COc1cc(OC)cc(-c2cn3c(-c4ccsc4)cnc3cn2)c1` [compound 323, 6-(3,5-dimethoxyphenyl)-3-(3-thienyl)imidazo[1,2-a]pyrazine] displayed an Emax of 20 to 50%.

`Nc1cccc(-c2ccc3ncc(-c4cccc(Cl)c4)n3n2)c1` [compound 123, 3-[3-(3-chlorophenyl)imidazo[1,2-b]pyridazin-6-yl]an iline] showed a maximal effect (Emax) of 20 to 50%.

Compound `C(=C\c1cnc2cccnn12)/c1ccccc1` [compound 74, 3-[(E)-styryl]imidazo[1,2-b]pyridazine] came in with a maximal response (Emax) of 20 to 50%.

Compound `c1cncc(CCNc2ccc3ncc(-c4ccc(N5CCOCC5)cc4)n3n2)c1` [compound 24, 3-(4-morpholinophenyl)-N-[2-(3-pyridyl)ethyl]imidazo[1,2-b]pyridazin-6-amine] gave an Emax of 50 to 100%.

`CN1CCN(c2ccc(-c3cnc4cccnn34)cn2)CC1` [compound 69, 3-[6-(4-methylpiperazin-1-yl)-3-pyridyl]imidazo[1,2-b]pyridazine]: the maximal effect (Emax) fell in the range of 10 to 20%.

`Fc1cccc(-c2cn3c(-c4ccc5c(c4)OCO5)cnc3cn2)c1` [compound 304, 3-(1,3-benzodioxol-5-yl)-6-(3-fluorophenyl)imidazo[1,2-a]pyrazine]: the Emax is 50 to 100%.

For the compound `Fc1ccc(-c2ccc3ncc(-c4cccs4)n3n2)cc1Cl` [compound 156, 6-(3-chloro-4-fluoro-phenyl)-3-(2-thienyl)imidazo[1,2-b]pyridazine], the Emax was 20 to 50%.

In turn, `CS(=O)(=O)Nc1cccc(-c2cn3c(-c4cccnc4)cnc3cn2)c1` [compound 318, N-[3-[3-(3-pyridyl)imidazo[1,2-a]pyrazin-6-yl]phenyl]methanesulfonamide] returned a maximal effect (Emax) of 20 to 50%.

Regarding `CC(=O)c1cccc(-c2cnc3ccc(-c4ccc(N)nc4)nn23)c1` [compound 153, 1-[3-[6-(6-amino-3-pyridyl)imidazo[1,2-b]pyridazin-3-yl]phenyl]ethanone], the maximum response (Emax) lay in the range of 20 to 50%.

`CN(C)CCCNC(=O)c1ccc(-c2cn3c(-c4ccc(N(C)C)cc4)cnc3cn2)cc1` [compound 285, 4-[3-(4-dimethylaminophenyl)imidazo[1,2-a]pyrazin-6-yl]-N-[3-(dimethylamino)propyl]benzamide] had a maximal response (Emax) of 50 to 100%.

Turning to `Oc1ccc(-c2cnc3cnc(-c4ccc(Cl)cc4)cn23)cc1` [compound 324, 4-[6-(4-chlorophenyl)imidazo[1,2-a]pyrazin-3-yl]phenol], the Emax is 20 to 50%.

In turn, `COc1cc(-c2ccc3ncc(-c4ccc(F)c(Cl)c4)n3n2)cc(OC)c1OC` [compound 114, 3-(3-chloro-4-fluoro-phenyl)-6-(3,4,5-trimethoxyphenyl)imidazo[1,2-b]pyridazine] gave a maximal response (Emax) of 10 to 20%.

In the case of `CN(C)c1cccc(-c2cnc3cnc(-c4ccsc4)cn23)c1` [compound 343, N,N-dimethyl-3-[6-(3-thienyl)imidazo[1,2-a]pyrazin-3-yl]aniline], the Emax was 50 to 100%.

For the compound `FC(F)(F)Oc1cccc(-c2cnc3cnc(-c4cccnc4)cn23)c1` [compound 352, 6-(3-pyridyl)-3-[3-(trifluoromethoxy)phenyl]imidazo[1,2-a]pyrazine], the Emax was 20 to 50%.

In turn, `COc1cc(OC)cc(-c2cn3c(-c4ccc5c(c4)OCO5)cnc3cn2)c1` [compound 308, 3-(1,3-benzodioxol-5-yl)-6-(3,5-dimethoxyphenyl)imidazo[1,2-a]pyrazine] registered an Emax of 50 to 100%.

In the case of `CS(=O)(=O)Nc1cccc(-c2cn3c(-c4cccs4)cnc3cn2)c1` [compound 425, N-[3-[3-(2-thienyl)imidazo[1,2-a]pyrazin-6-yl]phenyl]methanesulfonamide], the Emax is 20 to 50%.

For `Oc1cccc(-c2cnc3cnc(-c4cccs4)cn23)c1` [compound 370, 3-[6-(2-thienyl)imidazo[1,2-a]pyrazin-3-yl]phenol], the maximal response (Emax) is 20 to 50%.

For `CS(=O)(=O)c1cccc(-c2ccc3nnc(-c4ccccn4)n3c2)c1` [compound 249, 6-(3-methylsulfonylphenyl)-3-(2-pyridyl)-[1,2,4]triazolo[4,3-a]pyridine], the Emax was 20 to 50%.

On to `CN(C)C(=O)c1ccc(-c2cnc3cnc(-c4ccccc4Oc4ccccc4)cn23)cc1` [compound 430, N,N-dimethyl-4-[6-(2-phenoxyphenyl)imidazo[1,2-a]pyrazin-3-yl]benzamide], for which the Emax lay in the range of 20 to 50%.

Compound `FC(F)(F)c1cccc(C#Cc2ccc3nnc(-c4ccncc4)n3c2)c1` [compound 180, 3-(4-pyridyl)-6-[2-[3-(trifluoromethyl)phenyl]ethynyl]-[1,2,4]triazolo[4,3-a]pyridine] came in with an Emax of 10 to 20%.

Consider `CC(=O)Nc1ccc(-c2ccc3nnc(-c4cccc(Cl)c4)n3c2)cc1` [compound 202, N-[4-[3-(3-chlorophenyl)-[1,2,4]triazolo[4,3-a]pyridin-6-yl]phenyl]acetamide], for which the Emax was 20 to 50%.

`CCOc1cccc(-c2cn3c(-c4ccc5c(c4)OCO5)cnc3cn2)c1` [compound 302, 3-(1,3-benzodioxol-5-yl)-6-(3-ethoxyphenyl)imidazo[1,2-a]pyrazine] displayed a maximum response (Emax) of 50 to 100%.

`CN(C)c1ccc(-c2cnc3cnc(-c4cccc(C(=O)NCCO)c4)cn23)cc1` [compound 286, 3-[3-(4-dimethylaminophenyl)imidazo[1,2-a]pyrazin-6-yl]-N-(2-hydroxyethyl)benzamide] registered an Emax of 20 to 50%.

The compound `CN(C)c1ccc(-c2cnc3cnc(-c4ccccc4Cl)cn23)cc1` [compound 294, 4-[6-(2-chlorophenyl)imidazo[1,2-a]pyrazin-3-yl]-N,N-dimethyl-aniline] displayed a maximal effect (Emax) of 20 to 50%.

With `c1ccc(-c2nnc3ccc(-c4ccc5c(c4)OCO5)cn23)cc1` [compound 164, 6-(1,3-benzodioxol-5-yl)-3-phenyl-[1,2,4]triazolo[4,3-a]pyridine], the maximal effect (Emax) lay in the range of 50 to 100%.

`CN(C)C(=O)c1ccc(-c2cnc3cnc(-c4ccc5c(ccn5C)c4)cn23)cc1` [compound 433, N,N-dimethyl-4-[6-(1-methylindol-5-yl)imidazo[1,2-a]pyrazin-3-yl]benzamide] showed an Emax of 20 to 50%.

Compound `OCc1ccc(-c2cnc3cnc(-c4ccco4)cn23)cc1` [compound 373, [4-[6-(2-furyl)imidazo[1,2-a]pyrazin-3-yl]phenyl]methanol] had a maximum response (Emax) of 20 to 50%.

`COc1ccccc1CC(=O)Nc1cnc2cnc(-c3cccc(Cl)c3Cl)cn12` [compound 250, N-[6-(2,3-dichlorophenyl)imidazo[1,2-a]pyrazin-3-yl]-2-(2-methoxyphenyl)acetamide]: the Emax is 20 to 50%.

`Cc1ccccc1-c1nnc2ccc(-c3ccc(C(N)=O)cc3)cn12` [compound 225, 4-[3-(o-tolyl)-[1,2,4]triazolo[4,3-a]pyridin-6-yl]benzamide] showed an Emax of 20 to 50%.

For `CC(=O)Nc1cccc(-c2ccc3nnc(-c4ccc5nccnc5c4)n3c2)c1` [compound 241, N-[3-(3-quinoxalin-6-yl-[1,2,4]triazolo[4,3-a]pyridin-6-yl)phenyl]acetamide], the Emax was 50 to 100%.

With `CN1CCN(C(=O)c2cccc(-c3cnc4cnc(-c5ccc6c(c5)OCO6)cn34)c2)CC1` [compound 355, [3-[6-(1,3-benzodioxol-5-yl)imidazo[1,2-a]pyrazin-3-yl]phenyl]-(4-methylpiperazin-1-yl)methanone], the Emax was 20 to 50%.

With `COc1ccc(-c2ccc3nnc(-c4cscn4)n3c2)c(C)c1` [compound 231, 4-[6-(4-methoxy-2-methyl-phenyl)-[1,2,4]triazolo[4,3-a]pyridin-3-yl]thiazole], the Emax lay within 50 to 100%.

The compound `COc1ccc(-c2nnc3ccc(-c4cccs4)cn23)cc1OC` [compound 191, 3-(3,4-dimethoxyphenyl)-6-(2-thienyl)-[1,2,4]triazolo[4,3-a]pyridine] had a maximal effect (Emax) of 50 to 100%.

The compound `O=C(O)CCc1ccc(-c2cnc3cnc(-c4cccs4)cn23)cc1` [compound 332, 3-[4-[6-(2-thienyl)imidazo[1,2-a]pyrazin-3-yl]phenyl]propanoic acid] yielded an Emax of 20 to 50%.

`Fc1cccc(-c2cnc3cnc(-c4cccs4)cn23)c1` [compound 390, 3-(3-fluorophenyl)-6-(2-thienyl)imidazo[1,2-a]pyrazine]: the Emax is 20 to 50%.

`Oc1cccc(-c2cnc3cnc(/C=C/c4ccccc4)cn23)c1` [compound 366, 3-[6-[(E)-styryl]imidazo[1,2-a]pyrazin-3-yl]phenol] yielded a maximum response (Emax) of 20 to 50%.

`CC(=O)c1cccc(-c2cnc3cnc(-c4cccc(F)c4)cn23)c1` [compound 410, 1-[3-[6-(3-fluorophenyl)imidazo[1,2-a]pyrazin-3-yl]phenyl]ethanone] registered an Emax of 20 to 50%.

Compound `COc1cc(-c2cn3c(-c4ccccc4Cl)cnc3cn2)ccc1O` [compound 406, 4-[3-(2-chlorophenyl)imidazo[1,2-a]pyrazin-6-yl]-2-methoxy-phenol] came in with an Emax of 20 to 50%.

In the case of `COc1cccc(CC(=O)Nc2cnc3cnc(-c4cccs4)cn23)c1` [compound 260, 2-(3-methoxyphenyl)-N-[6-(2-thienyl)imidazo[1,2-a]pyrazin-3-yl]acetamide], the Emax fell in the range of 20 to 50%.

Compound `Nc1ccc(-c2cnc3ccc(Cc4ccccc4)nn23)cn1` [compound 161, 5-(6-benzylimidazo[1,2-b]pyridazin-3-yl)pyridin-2-amine] gave an Emax of 20 to 50%.

(Values after patent EP2818471A1, “Nitrogen bicyclic compounds as inhibitors for Scyl1 and Grk5” (Max-Planck-Gesellschaft zur Förderung der Wissenschaften …, priority 2013, dated 2014).)
